IC50 data for four compounds are collected here from patent publication US5183906A, “2- and 5-alkyl and phenyl substituted 4-(1-hydroxy, 1-acyloxy or 1-carbamoyloxy)-5-hydroxy-2 (5H)-furanones as anti-inflammatory agents” (Allergan, Inc., priority 1991, dated 1993).

Experiment [1] relates to Calcium^2+ Channel. As to the kind of experiment: Calcium^2+ Channel Mobilization Inhibition Assay. The experiment is classed as cell-based. The following applies: cell type not stated. Here is the method: Polymorphonuclear leukocytes (PMNa), gastric glands, GH3 cells, A431 cells, spleen cells, human keratinocytes corneal cells, etc. were loaded with the Ca^2+ sensitive fluorescent dye, Fura-2. The appropriate cell type was chosen and the potency and efficacy of the anti-inflammatory furanones on calcium mobilization, calcium channel inhibition was quantitated. The methods used for A431 cells listed below are representative of those used for other cells.
A431 cells were detached using a 5-10 min trypsin-EDTA treatment whereas GH3 cells were treated 2 to 5 min with a 1% pancreatin solution. Cells were immediately washed twice in a 20 mM HEPES buffer (pH 7.4) containing 120 mM NaCl, 6 mM KCl, 1 mM MgSO4, 1 mg/ml glucose and 1 mg/ml pyruvate and 1.4 mM calcium (medium A). Approximately 5×10^6 cells were suspended in medium A and incubated with 4uM fura-2-AM for 15 min at 37° C.
After washing the fura-2 loaded cells, the uptake of dye was checked using fluorescence microscopy and found to be evenly distributed in the cytosol of all cells. Fluorescence was continuously recorded with a Perkin-Elmer LS-5 spectrofluorometer. The excitation wavelength was set at 340 nm and emission wavelength set at 500 nm. The cell suspension was continually stirred, maintained at 37° C. and equilibrated for approximately 5 min before addition of various agents. [Ca^2+ i was calculated using the following formula: [formula]
All fluorescence values were measured relative to a EGTA-quenched signal determined as follows: F was the relative fluorescence measurement of the sample. Fmax was determined by lysing the cells with digitonin (100 ug/ml) in DMSO. After Fmax was determined the pH was adjusted to 8, with NaOH and Ca^2+ chelated with 3 mM EGTA to totally quench the fura-2 signal and obtain Fmin.
When quin-2- was used, cells were incubated with 10 uM quin-2- at 37° C. for 1 hour, washed and then used.

Experiment [2] deals with bee venom phospholipase A2 (Apis mellifera, UniProt P00630). As to the kind of experiment: biochemical. To be noted: pH 7.4.
Chain of bee venom phospholipase A2 (P00630 34-167 limits assumed): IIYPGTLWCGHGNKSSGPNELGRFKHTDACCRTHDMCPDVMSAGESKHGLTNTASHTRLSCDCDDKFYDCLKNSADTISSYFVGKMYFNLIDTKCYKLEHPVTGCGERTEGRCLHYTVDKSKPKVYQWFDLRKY
[3] abbreviates: KCl induced, read-out: IC50, Calcium^2+ Channel Mobilization Inhibition Assay, KCl induced.
Where [4] appears, read: TRH induced, read-out: IC50, Calcium^2+ Channel Mobilization Inhibition Assay, TRH induced.

Structures are written as SMILES. Where two headings read alike, the source gives them in different places.

Broadly, the IC50 is the concentration that inhibits the measured activity by half.

On to `CCCCCCCCCCCCC(OC(C)=O)C1=CC(=O)OC1(C)O` (stereo not shown) [Compound 1, 4-(1-Acetoxytridecyl)-5-hydroxy-5-methyl-2-furanone], for which the half-inhibitory concentration (IC50) in experiment [1] (setting [3]) turned out to be 7000 nM; in experiment [1] (setting [4]) it was 2500 nM.

For `CCCCCCCCCCCCC(OC(C)=O)C1=C(C)C(=O)OC1O` (stereo not shown) [Compound 2, 4-(1-Acetoxytridecyl)-3-methyl-5-hydroxy-2(5H)-furanone], in experiment [2], the IC50 was greater than 1000 nM.

Regarding `CCCCCCCCCCCCC(OC(=O)Nc1ccccc1)C1=CC(=O)OC1(C)O` (stereo not shown) [Compound 4, 5-Methyl-5-hydroxy-4-(1-phenylcarbamoyloxy)tridecyl-2-furanone], the 50% inhibitory concentration (IC50) worked out at 800 nM in experiment [1] (setting [3]) and 500 nM in experiment [1] (setting [4]).

`CC1=C(CC/C(C)=C/CCC2=CCC(C3=CC(=O)OC3O)OC2O)C(C)(C)CCC1` (stereo not shown) [manoalide, reference compound]: the half-inhibitory concentration (IC50) in experiment [1] (setting [3]) came to 800 nM; in experiment [1] (setting [4]), 600 nM.
